Results taken from ChEMBL document CHEMBL1124186, “Synthesis and evaluation of tylosin-related macrolides modified at the aldehyde function: a new series of orally effective antibiotics” (1988).
≈ marks a conversion by molar mass, not a printed value.

Experiments:
Haemophilus influenzae = experiment: In vitro antimicrobial activity against Haemophilus influenzae.; format: functional
Streptococcus pyogenes = experiment: In vitro antimicrobial activity against Streptococcus pyogenes C203; format: functional
Staphylococcus aureus = experiment: In vitro antimicrobial activity against Staphylococcus aureus X1; format: functional
Streptococcus pneumoniae = experiment: In vitro antimicrobial activity against Streptococcus pneumoniae; format: functional
[1] = test system: Staphylococcus epidermidis; experiment: In vitro antimicrobial activity against Staphylococcus epidermidis EPI1; format: functional
Enterococcus faecium = experiment: In vitro antimicrobial activity against Streptococcus faecium X66; format: functional, streptococcus fae-cium

| Structure (SMILES) | MIC (Haemophilus influenzae) [µg/mL] | MIC (Streptococcus pyogenes) [µg/mL] | MIC (Staphylococcus aureus) [µg/mL] | MIC (Streptococcus pneumoniae) [µg/mL] | MIC [1] [µg/mL] | MIC (Enterococcus faecium) [µg/mL] |
| --- | --- | --- | --- | --- | --- | --- |
| CC[C@H]1OC(=O)C[C@@H](O)[C@H](C)[C@@H](O[C@@H]2O[C@H](C)[C@@H](O)[C@H](N(C)C)[C@H]2O)[C@@H](CCOC(C)=O)C[C@@H](C)C(=O)/C=C/C(C)=C/[C@@H]1CO[C@@H]1O[C@H](C)[C@@H](O)[C@@H](OC)[C@H]1OC | 16 (≈ 19.6 µM) | 0.12 (≈ 0.147 µM) | 0.5 (≈ 0.613 µM) | 2 (≈ 2.45 µM) | 0.25 (≈ 0.306 µM) | 8 (≈ 9.8 µM) |
| CC[C@H]1OC(=O)C[C@@H](O)[C@H](C)[C@@H](O[C@@H]2O[C@H](C)[C@@H](O)[C@H](N(C)C)[C@H]2O)[C@@H](CCN2C(=O)c3ccccc3C2=O)C[C@@H](C)C(=O)/C=C/C(C)=C/[C@@H]1C | 128 (≈ 180 µM) | 64 (≈ 89.8 µM) | 8 (≈ 11.2 µM) | 64 (≈ 89.8 µM) | 8 (≈ 11.2 µM) | 32 (≈ 44.9 µM) |
| CC[C@H]1OC(=O)C[C@@H](O)[C@H](C)[C@@H](O[C@@H]2O[C@H](C)[C@@H](O)[C@H](N(C)C)[C@H]2O)[C@@H](CCN2C(=O)c3ccccc3C2=O)C[C@@H](C)C(=O)/C=C/C(C)=C/[C@@H]1CO | 64 (≈ 87.8 µM) | 64 (≈ 87.8 µM) | 4 (≈ 5.49 µM) | 64 (≈ 87.8 µM) | 4 (≈ 5.49 µM) | 16 (≈ 22 µM) |
| CC[C@H]1OC(=O)C[C@@H](O)[C@H](C)[C@H]2OCC[C@H]2C[C@@H](C)C(=O)/C=C/C(C)=C/[C@@H]1CO[C@@H]1O[C@H](C)[C@@H](O)[C@@H](OC)[C@H]1OC | > 128 | > 128 | > 128 | > 128 | > 128 | > 128 |
| CC[C@H]1OC(=O)C[C@@H](O)[C@H](C)[C@@H](O[C@@H]2O[C@H](C)[C@@H](O[C@H]3C[C@@](C)(O)[C@@H](O)[C@H](C)O3)[C@H](N(C)C)[C@H]2O)[C@@H](CCOc2ccc(-c3ccccc3)cc2)C[C@@H](C)C(=O)/C=C/C(C)=C/[C@@H]1CO[C@@H]1O[C@H](C)[C@@H](O)[C@@H](OC)[C@H]1OC | > 128 | 2 (≈ 1.87 µM) | 2 (≈ 1.87 µM) | 1 (≈ 0.934 µM) | 2 (≈ 1.87 µM) | 8 (≈ 7.47 µM) |

The remaining lines, values ahead:

| MIC (Haemophilus influenzae) [µg/mL] | MIC (Streptococcus pyogenes) [µg/mL] | MIC (Staphylococcus aureus) [µg/mL] | MIC (Streptococcus pneumoniae) [µg/mL] | MIC [1] [µg/mL] | MIC (Enterococcus faecium) [µg/mL] | Structure (SMILES) |
| --- | --- | --- | --- | --- | --- | --- |
| 1 (≈ 1.72 µM) | 0.25 (≈ 0.43 µM) | 0.25 (≈ 0.43 µM) | 0.12 (≈ 0.206 µM) | 0.25 (≈ 0.43 µM) | 0.5 (≈ 0.859 µM) | CC[C@H]1OC(=O)C[C@@H](O)[C@H](C)[C@@H](O[C@@H]2O[C@H](C)[C@@H](O)[C@H](N(C)C)[C@H]2O)[C@@H](CC=O)C[C@@H](C)C(=O)/C=C/C(C)=C/[C@@H]1C |
| > 128 | 4 (≈ 3.96 µM) | 1 (≈ 0.99 µM) | 64 (≈ 63.3 µM) | 2 (≈ 1.98 µM) | > 128 | CC[C@H]1OC(=O)C[C@@H](O)[C@H](C)[C@@H](O[C@@H]2O[C@H](C)[C@@H](O[C@H]3C[C@@](C)(O)[C@@H](O)[C@H](C)O3)[C@H](N(C)C)[C@H]2O)[C@@H](CCSc2ccccc2)C[C@@H](C)C(=O)/C=C/C(C)=C/[C@@H]1CO[C@@H]1O[C@H](C)[C@@H](O)[C@@H](OC)[C@H]1OC |
| 32 (≈ 36.8 µM) | 0.5 (≈ 0.575 µM) | 0.5 (≈ 0.575 µM) | 2 (≈ 2.3 µM) | 0.5 (≈ 0.575 µM) | 16 (≈ 18.4 µM) | CC[C@H]1OC(=O)C[C@@H](O)[C@H](C)[C@@H](O[C@@H]2O[C@H](C)[C@@H](O)[C@H](N(C)C)[C@H]2O)[C@@H](CCI)C[C@@H](C)C(=O)/C=C/C(C)=C/[C@@H]1CO[C@@H]1O[C@H](C)[C@@H](O)[C@@H](O)[C@H]1OC |
| > 128 | 4 (≈ 3.82 µM) | 0.5 (≈ 0.478 µM) | 4 (≈ 3.82 µM) | 1 (≈ 0.956 µM) | 32 (≈ 30.6 µM) | CC[C@H]1OC(=O)C[C@@H](O)[C@H](C)[C@@H](O[C@@H]2O[C@H](C)[C@@H](O[C@H]3C[C@@](C)(O)[C@@H](O)[C@H](C)O3)[C@H](N(C)C)[C@H]2O)[C@@H](CCOc2ncnc3ccccc23)C[C@@H](C)C(=O)/C=C/C(C)=C/[C@@H]1CO[C@@H]1O[C@H](C)[C@@H](O)[C@@H](OC)[C@H]1OC |
| 128 (≈ 123 µM) | 1 (≈ 0.964 µM) | 1 (≈ 0.964 µM) | 8 (≈ 7.71 µM) | 1 (≈ 0.964 µM) | 64 (≈ 61.7 µM) | CC[C@H]1OC(=O)C[C@@H](O)[C@H](C)[C@@H](O[C@@H]2O[C@H](C)[C@@H](O[C@H]3C[C@@](C)(O)[C@@H](O)[C@H](C)O3)[C@H](N(C)C)[C@H]2O)[C@@H](CCOc2cccc(N(C)C)c2)C[C@@H](C)C(=O)/C=C/C(C)=C/[C@@H]1CO[C@@H]1O[C@H](C)[C@@H](O)[C@@H](OC)[C@H]1OC |
| 64 (≈ 77 µM) | 2 (≈ 2.41 µM) | 4 (≈ 4.81 µM) | 1 (≈ 1.2 µM) | 4 (≈ 4.81 µM) | 8 (≈ 9.63 µM) | CC[C@H]1OC(=O)C[C@@H](O)[C@H](C)[C@@H](O[C@@H]2O[C@H](C)[C@@H](O[C@H]3C[C@@](C)(O)[C@@H](O)[C@H](C)O3)[C@H](N(C)C)[C@H]2O)[C@@H](CCNCCc2ccccc2)C[C@@H](C)C(=O)/C=C/C(C)=C/[C@@H]1C |
